In brackets after ≈: the same amount, converted by molar mass.
Tests used:
[1] = system: dermatophytes; test: Antidermatophyte activity, all tested dermatophytes together; type: cell-based; details: read-out: percentages of inhibition of growth, all five dermatophytes
Description: The in vitro antifungal activity against the five selected dermatophytes was evaluated, as previously described, using the plaque growth inhibition method. All compounds were evaluated at the final concentration of 100 µg/mL. The percentages of growth inhibition according to Equation (5) were calculated as the average of three different experiments. I = [(C − T)/C] × 100%,(5) where I is the percentage value of growth inhibition, C is the measure of the diameter of the control circular mycelial inoculum (mm) and T is the extended diameter of the treated mycelial inoculum (mm).
All synthesized benzothiazole derivatives were evaluated to evaluate their in vitro antifungal activity against the five pathogenic dermatophytes that cause the most common dermatomycoses: Microsporum gypseum, Microsporum canis, Trichophyton mentagrophytes, Trichophyton tonsurans and Epidermophyton floccosum. All compounds were tested at a concentration of 100 µg/mL in DMSO, to evaluate the ability to inhibit the growth of dermatophyte cultures in Sabouraud Dextrose Agar (SDA). Briefly, room temperature incubation was performed and dermatophyte inhibition assessed by measuring the colony diameter at each disc for 7 days. The results are shown in Table 3 and were determined as the average of three different experiments.

[2] = system: Mia-Paca2 cells; test: Antiproliferative activity; type: cell-based; details: Homo sapiens, MIA PaCa-2
Description: (§1) Human cervical carcinoma (HeLa) and human CD4+T-lymphoblast (CEM) cells were obtained from ATCC (Middlesex, UK). Human pancreatic carcinoma (Mia-Paca 2) cells were kindly provided by Prof. Anna Karlsson (Karolinska Institute, Stockholm, Sweden). All cell lines were grown in Dulbecco’s modified Eagle’s medium (DMEM; Gibco, Carlsbad, CA, USA), supplemented with 10% fetal bovine serum (FBS, Gibso), 0.01M Hepes (Gibco) and 1 mM sodium pyruvate (Gibco) in a humidified 5% CO2 incubator at 37 °C.
(§2) The cell suspensions of CEM, HeLa and Mia-Paca2 were treated with increasing concentrations of the selected compounds, following the protocol previously reported.
(§3) A stock solution of the compounds (20 mM in DMSO) was prepared and stored at −18 °C. Then, the compounds were diluted in the cell culture medium and tested starting with the 100 µM concentration as the upper limit. The application of equation (6) allowed to obtain the values of IC50. C1 − [50 − N1%/N2% − N1%] − (C1 − C2),(6) where C1 is the concentration of the compound which inhibits cell proliferation by more than 50%; C2 is the concentration of the compound which inhibits cell proliferation below 50%; N1% represents the number of cells (expressed as a percentage of control without compound) obtained in the presence of C1 and N2% represents the number of cells (as a percentage of control without compound) obtained in the presence of C2.
(§4) Finally, the compounds of this series of benzothiazole derivatives were tested to evaluate their antiproliferative activity in vitro against human T-cell leukemia cell line (CEM), human cervical carcinoma cells (HeLa), human pancreas cancer cells (Mia Paca-2) and human melanoma cells (SK-Mel 5). Non-cancerous HEK293T cells (Normal Kidney Epithelial Cells) were chosen as a control for cytotoxicity and/or selectivity. The results obtained have been summarized in Table 5 (data shown only for the active compounds) and are expressed as IC50 values in μM. The selectivity index (SI) was also reported, determined by comparing the values of IC50 (μM) obtained on healthy cells (HEK 293) with that obtained on tumor cells (CEM, HeLa, Mia-Paca-2 and SK- Mel 5) (Table 5).

[3] = system: CEM cells; test: Antiproliferative activity; type: cell-based; details: Homo sapiens, CCRF-CEM
Description: as §1, §2, §3, §4

[4] = system: HeLa cells; test: Antiproliferative activity; type: cell-based; details: Homo sapiens
Description: as §1, §2, §3, §4

[5] = In vitro DPPH test; details: for DPPH (% Inhibition): compounds at 1 mg/mL, 30 min, 517 nm
Description: The assay performed is adapted from Wang et al.. Briefly, 0.750 mL of 1 mg/mL solutions of the tested compounds was treated with 1.5 mL of DPPH solution in MeOH. The absorbance of samples, stored for 30 min at room temperature in the dark, was read on the spectrophotometer at 517 nm. The values obtained were converted into a radical inhibition percentage (%) by Equation (1). DPPH radical scavenging capacity (%) = [1 − A1/A0] × 100%(1) where A0 and A1 were, respectively, the absorbance without and with the sample. Subsequently, the compound with the best profile was tested in order to determine the IC50 (µg/mL). A linear regression plot is performed to calculate the actual sample concentration required to eliminate 50% of the DPPH free radicals.
The antioxidant activity of a molecule is very important and, if present, it can be synergistic with the SPF described above in reducing the damage that is ROS-induced by UV rays. For this reason, the synthesized compounds were assayed in vitro to assess their antioxidant profiles by means of the DPPH and FRAP assays (Table 2). Regarding the ability to scavenge the stable radical 2,2-diphenyl-1-picrylhydrazyl (DPPH), it was decided to investigate first the compounds synthesized at the same concentration (1 mg/mL) and evaluate the percentage of inhibition of the radical DPPH.

[6] = system: Candida albicans (ATCC 10231); test: Anti-Candida albicans activity, broth microdilution MIC; type: cell-based; details: for MIC: Candida albicans, ATCC10231, 24 h of incubation; for activity against Candida albicans: after 24 h
Description: The dermatophytes used in this study were Epidermophyton floccosum var. floccosum (Netherlands) CBS 358.93 strain, Trichophyton tonsurans (Netherlands) CBS 483.76 strain, Trichophyton mentagrophytes (Netherlands) CBS 160.66 strain, Microsporum canis (Iran) CBS 131,110 strain, and Microsporum gypseum (Iran) CBS 130,948 strain. All dermatophytes were maintained at 4 °C as agar slants on SDA. Candida albicans (ATCC 10231) was maintained at 4 °C on SDA plate.
The suspension of Candida albicans consists of the dispersion of an aliquot in 5 mL of sterilized water. The compounds and fluconazole, used as a positive control, were solubilized in DMSO (12.80 mg/mL) as stock solutions. Minimum inhibitory concentration (MIC) was performed by the broth microdilution method according to the approved standard M27-A3, 2008 [NCCLS] of the Clinical and Laboratory Standards Institute/National Committee for Clinical Laboratory Standards (CLSI/NCCLS), as described previously.
Candida is a strain of fungi known to transmit infections to different parts of the human body, including the skin [43], which is why the synthesized compounds have also been tested against Candida Albicans (ATCC 10231). For each of them the minimum inhibitory concentration (MIC) was determined by the broth microdilution method using RPMI 1640 + MOPS as culture medium. […] Fluconazole was used as a positive control drug. […] Similarly to the results observed on dermatophytes, therefore, the unsubstituted compounds in position 6 of benzimidazole gave activity on yeasts, except for compound 8a.

[7] = system: dermatophytes; set-up: method as in PMID 32967192; details: cited from earlier work

| Structure (SMILES) | IC50 [2] | IC50 [4] | MIC [6] | DPPH IC50 [5] | inhibition at 100 µg/mL [1] | IC50 [3] | DPPH (% Inhibition) [5] | activity against Candida albicans [6] | IC50 towards the tested dermatophytes [7] |
| --- | --- | --- | --- | --- | --- | --- | --- | --- | --- |
| c1csc(-c2nc3ccccc3s2)c1 [Compound 10a, 2-(Thiophen-2-Yl)benzothiazole] | > 100 µM | > 100 µM | 64 µg/mL (≈ 294 µM) | – | 50 to 75% | 45 ± 3 µM | 85.00 ± 0.88% | showed activity against Candida albicans after 24 h | – |
| c1c[nH]c(-c2nc3ccccc3[nH]2)c1 [Lead 10, reference compound] | 15 ± 9 µM | 37 µM | – | 64 ± 3 µg/mL | – | 14 ± 1 µM | 70.00 ± 3.25% | – | lower than 2 µg/mL |
| NS(=O)(=O)c1ccc2nc(-c3cccs3)sc2c1 [Compound 10c, 2-(Thiophen-2-Yl)benzothiazole-6-Sulfonamide] | 13 ± 3 µM | > 100 µM | – | – | – | > 100 µM | 21.82 ± 0.06% | – | – |

Now from value to compound, other results behind:

| IC50 [2] | IC50 [4] | MIC [6] | DPPH IC50 [5] | Structure (SMILES) | inhibition at 100 µg/mL [1] | IC50 [3] | DPPH (% Inhibition) [5] | activity against Candida albicans [6] | IC50 towards the tested dermatophytes [7] |
| --- | --- | --- | --- | --- | --- | --- | --- | --- | --- |
| 87 ± 18 µM | 65 ± 2 µM | – | – | c1c[nH]c(-c2nc3ccccc3s2)c1 [Compound 8a, 2-(1H-Pyrrol-2-Yl)benzothiazole] | – | > 100 µM | 29.17 ± 1.05% | – | – |
| > 100 µM | > 100 µM | 32 µg/mL (≈ 159 µM) | – | c1coc(-c2nc3ccccc3s2)c1 [Compound 9a, 2-(Furan-2-Yl)benzothiazole] | 50 to 75% | 41 ± 5 µM | 24.69 ± 0.14% | showed activity against Candida albicans after 24 h | – |

Reference: publication PMC8869097, “Benzothiazole Derivatives as Multifunctional Antioxidant Agents for Skin Damage: Structure–Activity Relationship of a Scaffold Bearing a Five-Membered Ring System” (Antioxidants, 2022)
